Test results taken from ChEMBL document CHEMBL5329205, “Development of novel quinoline-NO donor hybrids inducing human breast cancer cells apoptosis via inhibition of topoisomerase I” (Bioorg Med Chem, 2023).
The source made the active and inactive calls. No cut-off for these calls is given here.

Experiments:
MCF7 [1] = test: Induction of cell cycle arrest in human MCF7 cells assessed as S phase cells at 0.75 uM incubated for 24 hrs by PI/RNaseA staining based flow cytometry analysis (reference value: 22.2 %); type: functional
MCF7 [2] = test: Induction of apoptosis in human MCF7 cells assessed as early apoptotic cells at 0.75 uM incubated for 48 hrs by Annexin-V/PI staining based flow cytometry analysis (reference value: 0.3%); type: functional
MCF7 [3] = test: Induction of apoptosis in human MCF7 cells assessed as boundary consolidation upto 3 uM incubated for 48 hrs by Hoechst-33342 staining based fluorescent microscopic analysis; type: functional, cell-based
MCF7 [4] = test: Induction of apoptosis in human MCF7 cells assessed as necrotic cells at 3 uM incubated for 48 hrs by Annexin-V/PI staining based flow cytometry analysis (reference value: 0.0%); type: functional
MCF7 [5] = test: Antitumor activity against human MCF7 cells xenografted in BALB/c nude mouse assessed as reduction in tumor volume at 5 mg/kg, ip administered once every two days for 3 weeks; type: functional, organism-based
[6] = Toxicity in BALB/c mouse xenografted with human MCF7 cells assessed as liver damage at 10 mg/kg, ip administered once every two days for 3 weeks by H and E staining based microscopic analysis; type: organism-based; details: in vivo, 504 h
[7] = Toxicity in BALB/c mouse xenografted with human MCF7 cells assessed as heart damage at 10 mg/kg, ip administered once every two days for 3 weeks by H and E staining based microscopic analysis; type: organism-based; details: in vivo, 504 h
[8] = Toxicity in BALB/c mouse xenografted with human MCF7 cells assessed as lung damage at 10 mg/kg, ip administered once every two days for 3 weeks by H and E staining based microscopic analysis; type: organism-based; details: in vivo, 504 h
MCF7 [9] = test: Induction of apoptosis in human MCF7 cells assessed as total apoptotic cells at 0.75 to 3 uM incubated for 48 hrs by Annexin-V/PI staining based flow cytometry analysis (reference value: 0.3 %); type: functional; details: dose 0.75-3 µM
MCF7 [10] = test: Induction of cell cycle arrest in human MCF7 cells assessed as S phase cells at 3 uM incubated for 24 hrs by PI/RNaseA staining based flow cytometry analysis (reference value: 22.2 %); type: functional
MCF7 [11] = test: Induction of apoptosis in human MCF7 cells assessed as early apoptotic cells at 1.5 uM incubated for 48 hrs by Annexin-V/PI staining based flow cytometry analysis (reference value: 0.3%); type: functional
[12] = Toxicity in BALB/c mouse xenografted with human MCF7 cells assessed as spleen damage at 5 mg/kg, ip administered once every two days for 3 weeks by H and E staining based microscopic analysis; type: organism-based; details: in vivo, 504 h
[13] = Toxicity in BALB/c nude mouse xenografted with human MCF7 cells assessed as heart damage at 5 mg/kg, ip administered once every two days for 3 weeks by H and E staining based microscopic analysis; type: organism-based; details: in vivo, 504 h
MCF7 [14] = test: Induction of apoptosis in human MCF7 cells assessed as viable cells at 0.75 uM incubated for 48 hrs by Annexin-V/PI staining based flow cytometry analysis (reference value: 99.7%); type: functional; details: read-out: Activity
MCF7 [15] = test: Induction of apoptosis in human MCF7 cells assessed as upregulation of Bax expression incubated for 24 hrs by Western blot analysis; type: functional, cell-based; details: dose 1-4 µM
MCF7 [16] = test: Induction of apoptosis in human MCF7 cells assessed as late apoptotic cells at 3 uM incubated for 48 hrs by Annexin-V/PI FITC staining based flow cytometry analysis (reference value: 0.0%); type: functional
MCF7 [17] = test: Antiproliferative activity against human MCF7 cells assessed as NO release at 4 uM preincubated with PTIO for 2 hrs followed by compound addition and measured after 24 hrs by total nitric oxide assay; type: functional, cell-based
MCF7 [18] = test: Induction of apoptosis in human MCF7 cells assessed as upregulation of cleaved-PARP expression incubated for 24 hrs by Western blot analysis; type: functional, cell-based; details: dose 1-4 µM
MCF7 [19] = test: Induction of apoptosis in human MCF7 cells assessed as necrotic cells at 0.75 uM incubated for 48 hrs by Annexin-V/PI staining based flow cytometry analysis (reference value: 0.0%); type: functional
MCF7 [20] = test: Induction of cell cycle arrest in human MCF7 cells assessed as G2 phase cells at 1.5 uM incubated for 24 hrs by PI/RNaseA staining based flow cytometry analysis (reference value: 7.67 %); type: functional
MCF7 [21] = test: Induction of cell cycle arrest in human MCF7 cells assessed as G1 phase cells at 0.75 uM incubated for 24 hrs by PI/RNaseA staining based flow cytometry analysis (reference value: 66.08 %); type: functional
MCF7 [22] = test: Induction of apoptosis in human MCF7 cells assessed as downregulation of Bcl-2 expression incubated for 24 hrs by Western blot analysis; type: functional, cell-based; details: dose 1-4 µM
MCF7 [23] = test: Induction of cell cycle arrest in human MCF7 cells assessed as G1 phase cells at 1.5 uM incubated for 24 hrs by PI/RNaseA staining based flow cytometry analysis (reference value: 66.08 %); type: functional
MCF7 [24] = test: Induction of cell cycle arrest in human MCF7 cells assessed as G2 phase cells at 3 uM incubated for 24 hrs by PI/RNaseA staining based flow cytometry analysis (reference value: 7.67 %); type: functional
MCF7 [25] = test: Induction of apoptosis in human MCF7 cells assessed as viable cells at 1.5 uM incubated for 48 hrs by Annexin-V/PI staining based flow cytometry analysis (reference value: 99.7%); type: functional; details: read-out: Activity
MCF7 [26] = test: Induction of apoptosis in human MCF7 cells assessed as early apoptotic cells at 3 uM incubated for 48 hrs by Annexin-V/PI staining based flow cytometry analysis (reference value: 0.3%); type: functional
[27] = Cytotoxicity against human MCF-10A cells assessed as cell growth inhibition measured after 48 hrs by MTT assay; type: toxicity, cell-based
MCF7 [28] = test: Induction of ROS generation in human MCF7 cells at 0.1 uM incubated for 24 hrs by DCFH-DA staining based fluorescent microscopic analysis; type: functional, cell-based
MCF7 [29] = test: Induction of apoptosis in human MCF7 cells assessed as necrotic cells at 1.5 uM incubated for 48 hrs by Annexin-V/PI staining based flow cytometry analysis (reference value: 0.0%); type: functional

COc1cc(-c2cc(C(=O)OCCCCCOc3no[n+]([O-])c3S(=O)(=O)c3ccccc3)c3ccccc3n2)cc(OC)c1OC
Activity (MCF7 [1]): 22.08%
Activity (MCF7 [2]): 11.9%
Activity (MCF7 [3]): Active
Activity (MCF7 [4]): 1.2%
Activity (MCF7 [5]): Active
Activity [6]: Non-Toxic
Activity [7]: Non-Toxic
Activity [8]: Non-Toxic
Activity (MCF7 [9]): 64.3%
Activity (MCF7 [10]): 17.82%
Activity (MCF7 [11]): 13.2%
Activity [12]: Non-Toxic
Activity [13]: Non-Toxic
viability at 0.75 µM (MCF7 [14]): 67.1%
Activity (MCF7 [15]): Dose-Dependent Effect
Activity (MCF7 [16]): 50%
Activity (MCF7 [17]): inactive
Activity (MCF7 [18]): Dose-Dependent Effect
Activity (MCF7 [19]): 3%
Activity (MCF7 [20]): 19.12%
Activity (MCF7 [21]): 65.47%
Activity (MCF7 [22]): Dose-Dependent Effect
Activity (MCF7 [23]): 61.5%
Activity (MCF7 [24]): 23.52%
viability at 1.5 µM (MCF7 [25]): 65.4%
Activity (MCF7 [26]): 14.3%
IC50 at 48 h [27]: 26.9 µM
Activity (MCF7 [28]): Active
Activity (MCF7 [29]): 3.3%
